Data taken from patent US20020018808A1, “Vaccines against sterols” (priority 1990, published 2002).

Experiments:
[1] = Complement-dependent immune lysis assay of antisera (glucose release from liposomes); set-up: species or system BALB/c mice
Method: This assay measures antibody-mediated, complement-dependent release of encapsulated glucose from liposomes. Released glucose is measured spectrophotometrically using a Tris-buffered assay reagent containing hexokinase, glucose-6-phosphate dehydrogenase, ATP, and NADP. This particular assay is a measurement of antibody functional activity, rather than particle (antibody) detection.
In addition, the antisera from mice vaccinated with phosphatidylcholesterol could detect cholesterol present in liposomes containing 43% cholesterol as well as 71% cholesterol, and were equally as active against liposomes containing phosphatidylcholesterol in a complement-dependent immune lysis assay. […] In the above antibody-dependent immune lysis assays, a release greater than 5% indicates a positive reaction.
The test liposomes contained or lacked 5 mol % phosphatidylcholesterol. The antisera were tested using a complement-dependent immune lysis assay, wherein a release greater than 5% indicated a positive reaction.

[2] = ELISA of antisera from mice immunized with sterol-containing liposomes; type: in vivo, BALB/c mice
Method: Accordingly, the following study is designed to assess the immunogenicity of different cholesterol or sterol analogs for use in a vaccine to prevent hyper-cholesterolemia. Briefly summarized, several sterols such as cholesterol, vitamin D2, cholesteryl oleate, cholesteryl myristate, 4-cholesten-3-one, and phosphatidylcholesterol (17β-Linkage) and (3β-Linkage), are incorporated into liposomes containing DPMC (1.8), DMPG (0.2), Chol (1.5) (mol/mol) and lipid A (25 to 200 μg/mol, preferably 25 μg/mol phospholipid) so that the phospholipid concentration remains constant. These liposomes are inoculated into BALB/c mice i.p. at day 0 and day 14. Mice are bled at day 14 and day 21 and antibodies specific for the antigen are assessed by ELISA using the antigen itself or crystalline cholesterol.
Multilamellar vesicles (“MLV”) are produced by aliquotting DMPC:DMPG:Cholesterol, 9:1:7.5 (mol/mol), and lipid A at 25 to 200 μg/Imol phospholipid into a round bottom flask. The mixture is rotary evaporated, desiccated, and hydrated in sterile, deionized water. Lipids are lyophilized and reconstituted in PBS to 10 mM with respect to phospholipids and assayed for total phosphorous.
Male BALB/c mice, 6-8 weeks old, are bled and then immunized with 0.1 ml liposomes containing 1 μmol total phospholipid and 25-200 μg monophosphoryl lipid A ip. At 14 day intervals, mice are bled and sera collected. […]

Row | SMILES | Glucose release of test liposomes ([1]; immune lysis assay, liposomes composed of 5% phosphatidylcholesterol (17β-Linkage)) | Liposome integrity in antibody-mediated immune lysis assay ([1]; more than 5 mol % phosphatidylcholesterol in liposomes containing 43 mol % cholesterol) | Reactivity of generated antibody ([2]; compound of Example VI in liposomes) | Antibody isotype induced ([2]; mice, detected by ELISA (FIG. 8))
1 | CCCCCCCCCCCCCC(=O)OCC(COP(=O)(O)OCCNC(=O)[C@H]1CC[C@H]2[C@@H]3CC=C4C[C@@H](O)CC[C@]4(C)[C@H]3CC[C@]12C)OC(=O)CCCCCCCCCCCCC (stereo partly drawn) [phosphatidylcholesterol (17β-Linkage), N-(5-Androsten-3β-OL-17β-amido) dimyristoylphosphatidylethanolamine] | glucose release equivalent to liposomes containing 43% and 71% cholesterol | leaky liposomes | IgG antibody that reacts with crystalline cholesterol, 43% cholesterol liposomes, and 71% liposomes | 
2 | CC(C)CCC[C@@H](C)[C@H]1CC[C@H]2[C@@H]3CC=C4C[C@@H](O)CC[C@]4(C)[C@H]3CC[C@]12C [cholesterol] |  |  |  | induce primarily IgM
